Test results: patent US20030148285A1, “Mammalian SIMP protein, gene sequence and uses thereof in cancer therapy” (priority 2001, published 2003)

What was measured:
[1] = test system: B6^dom1-specific T-cells (C3H.SW target cells coated with synthetic peptides); conditions: previously shown; cited from earlier work
[2] = test system: B6^dom1-specific T-cells (C3H.SW target cells coated with synthetic peptides); experiment: 51Cr release cytotoxicity assay: peptide recognition by C3H.SW anti-C57BL/6 CTLs; format: cell-based, mouse; conditions: effector to target ratio 50:1, FIG. 1
Method: Cytotoxic activity was assessed in a standard ^51Cr release assay (Pion et al., 1997. Eur. J. Immunol. 27:421-430). Target blast cells, prepared by culturing C3H.SW spleen cells (3×10^6/ml) with 5 μg/ml of Concanavalin A (Con A; Sigma Chemical Co., St-Louis, Mo.) for 48 hours, were labeled with 100 μCi Na2^51Cr (Dupont Co., Wilmington, Del.) for 90 minutes, sensitized with synthetic peptides for 90 minutes, then mixed with C3H.SW anti-C57BL/6 effector cells at a 50:1 effector to target ratio. Cells were then incubated for 4 hours at 37° C. in a humidified atmosphere of 5% CO2. Afterwards, supernatants were harvested and counted in a gamma counter. All tests were done in triplicate. Spontaneous release was below 15%. Results are expressed as a percentage of specific lysis calculated as follows: % specific lysis=100×(experimental release−spontaneous release)/(maximum release−spontaneous release).

AAPDNRETF
Recognition by B6^dom1-specific T-cells [1]: recognised by B6^dom1-specific T-cells

KAPDNRDTL [synthetic peptide; product of the putative B6^dom1 allele found in B6^dom1− strains of mice]
Recognition by B6^dom1-specific CTLs (specific lysis of peptide-coated C3H.SW targets) ([2]; peptide even at 10^−5 M): not recognised

KAPDNRETL [synthetic peptide]
Recognition by B6^dom1-specific CTLs (specific lysis of peptide-coated C3H.SW targets) ([2]; peptide at 10^−8 M): recognised more efficiently than the AAPDNRETF peptide
